molecular target: T1, cholesteryl ester transfer protein (CETP) (Homo sapiens, UniProt P11597); assay: CETP activity SPA assay in the presence of plasma (source of CETP: human lipoprotein-deprived serum, LPDS); format: biochemical; settings: CETP from human lipoprotein-deprived serum (LPDS); transfer of radiolabeled cholesteryl ester from HDL donor to biotin-labeled LDL acceptor particles
T1 construct: the source of CETP was human lipoprotein-deprived serum (LPDS); from tissue; host or cells: human lipoprotein-deprived serum (LPDS)
T1 sequence (P11597 18-493): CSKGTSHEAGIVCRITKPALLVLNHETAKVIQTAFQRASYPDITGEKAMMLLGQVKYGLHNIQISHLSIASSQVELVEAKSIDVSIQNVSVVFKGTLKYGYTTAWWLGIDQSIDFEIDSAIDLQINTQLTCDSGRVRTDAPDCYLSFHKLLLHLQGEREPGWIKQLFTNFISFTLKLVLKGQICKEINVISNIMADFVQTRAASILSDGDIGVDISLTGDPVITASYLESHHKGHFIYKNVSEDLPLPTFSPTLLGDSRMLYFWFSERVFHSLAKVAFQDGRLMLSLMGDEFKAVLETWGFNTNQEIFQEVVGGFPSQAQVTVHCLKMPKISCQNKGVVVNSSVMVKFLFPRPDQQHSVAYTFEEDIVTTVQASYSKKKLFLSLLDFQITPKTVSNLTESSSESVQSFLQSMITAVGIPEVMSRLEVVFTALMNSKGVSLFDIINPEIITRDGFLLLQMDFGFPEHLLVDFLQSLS
Experimental: Activity of CETP inhibitors was determined using a buffer assay system. Partially purified CETP transferred radiolabeled cholesteryl ester from HDL donor particles to biotin-labeled LDL acceptor particles. The reaction was stopped by addition of streptavidin-coupled scintillation proximity assay (SPA) beads. These beads captured the biotinylated acceptor particles and transferred radioactivity was measured. The assay system was purchased and performed according to manufacturer's recommendations (Amersham Biosciences). Inhibitory activity of compounds was determined as percentage of positive control activity containing CETP together with donor and acceptor particles. Serial dilution of compounds was performed in order to determine the IC50 values.
Activity of the compounds was subsequently measured in the presence of plasma using the same assay as described above except that the source of CETP was human lipoprotein-deprived serum (LPDS). Inhibitory activity of compounds was determined as percentage of positive control activity containing all the assay components except compound. Serial dilution of compounds was performed in order to determine the IC50 values.

Row | IC50 [nM] | SMILES
1 | 66800 | CC(C)(C)c1ccc(CN(CCc2ccc(Cl)c(Cl)c2)C(=O)c2cnccc2Cl)cc1 [Compound B3, N-(4-tert-Butyl-benzyl)-4-chloro-N-[2-(3,4-dichloro-phenyl)-ethyl]-nicotinamide]
2 | 1250 | O=C(c1cc(Cl)cc(Cl)c1)N(CCc1ccc(Cl)cc1)Cc1ccc(C(F)(C(F)(F)F)C(F)(F)F)cc1 [Compound B104, 3,5-Dichloro-N-[2-(4-chloro-phenyl)-ethyl]-N-[4-(1,2,2,2-tetrafluoro-1-trifluoromethyl-ethyl)-benzyl]-benzamide]
3 | 409 | CCC(C)(C)c1ccc(CN(CCc2ccc(Cl)cc2)C(=O)c2cc(Cl)cc(Cl)c2)cc1 [Compound B108, 3,5-Dichloro-N-[2-(4-chloro-phenyl)-ethyl]-N-[4-(1,1-dimethyl-propyl)-benzyl]-benzamide]

From patent US7745477B2, “Heteroaryl and benzyl amide compounds” (Hoffman-La Roche Inc., priority 2006, dated 2010)
